Results as given in ChEMBL document CHEMBL1201862, “PubChem BioAssay data set” (2004).
Calls of active or inactive are those of the source.

Assays:
Kallikrein-7 = Kallikrein-7 (Homo sapiens, UniProt P49862); experiment: Fluorescence Intensity-based biochemical primary high throughput dose response assay to identify activators of kallikrein-7 (K7) zymogen.
[1] = growth inhibition of yeast DHODH-expressing 3D7 parasites – SYBR Green, dry powder samples, dose response (AID 1159570); type: functional, cell-based;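 also: parasite growth measured after 72 hours of compound exposure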
[2] = toxicity to human HepG2 hepatoma cells – cell-based, plate reader, dry powder samples, cytotoxicity control, dose response (AID 1159569); type: functional;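 also: inhibitor potency with signal falling toward the positive control level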
[3] = P. falciparum Dd2 growth inhibitors, dose response, SYBR Green, cherry-picked samples (AID 1159567); type: functional, cell-based
[4] = Dd2 malaria parasite growth inhibition potency – SYBR Green, dry powder samples, dose response (AID 1159566); type: functional, cell-based;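 also: potency for growth inhibition with lower SYBR green DNA signal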
[5] = growth inhibition of PfATP4-mutant resistant parasites – NITD609-resistant line, SYBR Green, dry powder, dose response (AID 1159571); type: functional, cell-based;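 also: parasites synchronized at ring stage by sorbitol before testing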
[6] = viability of PTEN-deleted HCT116 cells – cell-based, HCT116 PTEN knockout, dose response (AID 1047); type: functional;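 also: HCT116 colon tumor cells with PTEN knocked out; cells exposed to compound for 60 hours before readout; potency for loss of cell viability measured by luminescence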
[7] = viability of HCT116 lacking mutant beta-catenin – cell-based, human colon tumor, dose response (AID 1045); type: functional;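 also: HCT116 colon tumor cells with beta catenin knocked out; cells exposed to compound for 60 hours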
[8] = target: T1, Replicative DNA helicase DnaB (Mycobacterium tuberculosis, UniProt P9WMR3); experiment: DnaB intein splicing inhibitors, dose response, biochemical, cell-free fluorescence (AID 449749); type: functional
T1 sequence (P9WMR3 whole entry): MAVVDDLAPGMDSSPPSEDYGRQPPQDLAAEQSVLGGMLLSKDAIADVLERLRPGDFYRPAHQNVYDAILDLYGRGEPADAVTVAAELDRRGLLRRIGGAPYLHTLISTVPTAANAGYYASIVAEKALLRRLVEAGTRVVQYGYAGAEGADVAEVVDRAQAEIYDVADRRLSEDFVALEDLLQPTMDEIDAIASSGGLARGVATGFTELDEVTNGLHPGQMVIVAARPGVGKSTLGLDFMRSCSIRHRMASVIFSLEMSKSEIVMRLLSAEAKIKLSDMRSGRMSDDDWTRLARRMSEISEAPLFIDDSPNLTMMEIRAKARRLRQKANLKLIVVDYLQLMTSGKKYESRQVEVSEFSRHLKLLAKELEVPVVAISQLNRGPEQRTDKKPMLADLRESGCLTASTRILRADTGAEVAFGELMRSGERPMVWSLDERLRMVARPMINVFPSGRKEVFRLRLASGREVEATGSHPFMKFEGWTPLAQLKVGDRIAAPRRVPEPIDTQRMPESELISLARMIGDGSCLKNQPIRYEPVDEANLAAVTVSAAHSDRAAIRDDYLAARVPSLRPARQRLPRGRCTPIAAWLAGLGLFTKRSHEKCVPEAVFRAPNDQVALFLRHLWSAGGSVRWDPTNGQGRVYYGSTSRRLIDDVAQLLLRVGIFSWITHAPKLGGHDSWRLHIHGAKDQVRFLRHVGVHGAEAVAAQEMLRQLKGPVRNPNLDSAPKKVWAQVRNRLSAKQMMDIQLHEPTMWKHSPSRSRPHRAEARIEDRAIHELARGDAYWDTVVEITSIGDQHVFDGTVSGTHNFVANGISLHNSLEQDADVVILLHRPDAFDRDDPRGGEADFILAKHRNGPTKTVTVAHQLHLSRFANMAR

Protein RecA = target: T2, Protein RecA (Mycobacterium tuberculosis, UniProt P9WHJ3); experiment: Fluorescence Cell-Free Homogeneous Dose Retest to Identify Inhibitors of RecA-Intein Splicing Activity. [Related pubchem assays (depositor defined):AID2097, AID2223, AID489010, AID492950]; type: functional
T2 sequence (P9WHJ3 whole entry): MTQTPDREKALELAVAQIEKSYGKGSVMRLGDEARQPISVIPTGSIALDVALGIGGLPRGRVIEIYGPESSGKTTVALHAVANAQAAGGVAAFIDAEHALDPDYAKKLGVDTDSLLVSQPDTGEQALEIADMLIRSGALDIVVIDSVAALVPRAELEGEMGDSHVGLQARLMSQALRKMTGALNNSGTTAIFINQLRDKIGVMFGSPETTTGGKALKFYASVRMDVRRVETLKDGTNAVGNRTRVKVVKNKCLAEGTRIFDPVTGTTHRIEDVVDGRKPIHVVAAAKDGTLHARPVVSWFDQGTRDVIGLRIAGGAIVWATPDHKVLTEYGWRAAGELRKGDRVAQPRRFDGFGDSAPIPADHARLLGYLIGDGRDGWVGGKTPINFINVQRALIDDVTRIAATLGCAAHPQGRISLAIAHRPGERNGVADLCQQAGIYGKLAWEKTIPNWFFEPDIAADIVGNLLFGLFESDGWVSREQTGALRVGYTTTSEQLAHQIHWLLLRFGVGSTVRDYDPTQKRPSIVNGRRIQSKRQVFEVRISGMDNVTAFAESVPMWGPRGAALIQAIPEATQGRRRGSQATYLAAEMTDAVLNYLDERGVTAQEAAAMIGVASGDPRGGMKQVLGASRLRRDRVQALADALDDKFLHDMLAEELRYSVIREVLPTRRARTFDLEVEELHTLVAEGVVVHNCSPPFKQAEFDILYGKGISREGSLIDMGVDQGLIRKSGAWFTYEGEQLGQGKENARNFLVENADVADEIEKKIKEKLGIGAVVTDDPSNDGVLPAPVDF

[9] = target: T3, Polyadenylate-binding protein 1 (Homo sapiens, UniProt P11940); experiment: MLLE binding blockers, Cy5 peptide tracer – biochemical, fluorescence polarization, Cy5-PAM2 peptide, secondary, miRNA deadenylation inhibitor project, dose response (AID 602260); type: functional; settings: read-out: IC50_Mean
[10] = target: T3, Polyadenylate-binding protein 1; experiment: MLLE domain peptide-binding blockers, IC50 – biochemical, fluorescence polarization, FITC-PAM2 peptide, dose response (AID 602259); type: functional; settings: read-out: IC50_Mean
[11] = viability loss in THP-1 monocytes – THP-1 cells, cytotoxicity control for Vif-APOBEC3G degradation inhibitor project, dose response (AID 1117359); type: functional; settings: THP-1
Paired box protein Pax-8 = Paired box protein Pax-8 (Homo sapiens, UniProt Q06710); experiment: PAX8 transcriptional activity inhibition in RMG-I – RMG-I cells, luciferase, cherry-pick, dose response (AID 687027); type: functional, cell-based;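 also: luciferase reporter driven by Pax8 target thyroperoxidase promoter measured by SteadyGlo luminescence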
[12] = general cell-killing toxicity readout – plate reader, dry powder samples, cytotoxicity control for PAX8 inhibitor project, dose response (AID 743021); type: functional, cell-based
Estrogen receptor beta [13] = target: T4, Estrogen receptor beta (Homo sapiens, UniProt Q92731);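 also: recombinant ER-beta bound to coactivator SRC1 peptide in presence of estradiol agonist; inhibitors block coactivator peptide binding and lower the FRET signal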
Estrogen receptor beta [14] = target: T4, Estrogen receptor beta; experiment: blockers of SRC-3 recruitment to ERβ – biochemical, ELISA, streptavidin-HRP readout, orthogonal assay, confirmation (AID 1060)
[15] = target: T5, Carboxy-terminal domain RNA polymerase II polypeptide A small phosphatase 1 (Homo sapiens, UniProt Q9GZU7); experiment: CTDSP1 inhibitors, concentration-response, biochemical, absorbance readout, ultra-high-throughput screen actives (AID 540297); type: functional
T5 sequence (Q9GZU7 whole entry): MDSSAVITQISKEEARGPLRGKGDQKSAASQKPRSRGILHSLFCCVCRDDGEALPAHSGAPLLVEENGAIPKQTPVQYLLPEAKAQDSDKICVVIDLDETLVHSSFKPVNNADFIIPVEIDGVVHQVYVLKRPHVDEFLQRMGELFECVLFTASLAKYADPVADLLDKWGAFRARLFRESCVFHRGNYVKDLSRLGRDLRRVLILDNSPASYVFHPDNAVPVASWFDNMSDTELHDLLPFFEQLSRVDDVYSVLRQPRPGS

[16] = toxicity to human hepatoma HepG2 cells – cell-based, cherry-picked samples, cytotoxicity control, dose response (AID 1159577); type: functional

T3 sequence (P11940 whole entry, the tested form may be a part): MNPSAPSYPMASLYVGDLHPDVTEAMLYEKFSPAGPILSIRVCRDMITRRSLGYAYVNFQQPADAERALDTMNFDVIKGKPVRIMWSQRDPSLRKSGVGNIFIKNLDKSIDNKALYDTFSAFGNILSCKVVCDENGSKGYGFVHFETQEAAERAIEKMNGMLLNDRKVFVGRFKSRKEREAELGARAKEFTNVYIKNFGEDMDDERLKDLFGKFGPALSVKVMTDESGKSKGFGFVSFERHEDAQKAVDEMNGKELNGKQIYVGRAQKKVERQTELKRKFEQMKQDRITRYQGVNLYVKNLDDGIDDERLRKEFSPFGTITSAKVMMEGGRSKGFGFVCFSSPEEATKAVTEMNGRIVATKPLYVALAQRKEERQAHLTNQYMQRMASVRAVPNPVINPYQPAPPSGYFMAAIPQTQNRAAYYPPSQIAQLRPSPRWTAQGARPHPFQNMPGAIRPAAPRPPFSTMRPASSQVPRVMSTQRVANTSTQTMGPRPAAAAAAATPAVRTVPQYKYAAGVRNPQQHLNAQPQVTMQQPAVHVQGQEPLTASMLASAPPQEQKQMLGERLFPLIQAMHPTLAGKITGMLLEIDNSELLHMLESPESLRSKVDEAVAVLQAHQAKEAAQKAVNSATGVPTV
Sequence of Kallikrein-7 (P49862 whole entry): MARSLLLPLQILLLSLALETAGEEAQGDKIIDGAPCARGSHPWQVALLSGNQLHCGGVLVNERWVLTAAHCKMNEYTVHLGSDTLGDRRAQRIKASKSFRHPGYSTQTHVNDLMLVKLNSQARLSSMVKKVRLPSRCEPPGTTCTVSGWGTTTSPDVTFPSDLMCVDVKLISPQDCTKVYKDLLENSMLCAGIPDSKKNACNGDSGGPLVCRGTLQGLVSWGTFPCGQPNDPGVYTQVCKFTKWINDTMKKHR
T4 sequence (Q92731 whole entry): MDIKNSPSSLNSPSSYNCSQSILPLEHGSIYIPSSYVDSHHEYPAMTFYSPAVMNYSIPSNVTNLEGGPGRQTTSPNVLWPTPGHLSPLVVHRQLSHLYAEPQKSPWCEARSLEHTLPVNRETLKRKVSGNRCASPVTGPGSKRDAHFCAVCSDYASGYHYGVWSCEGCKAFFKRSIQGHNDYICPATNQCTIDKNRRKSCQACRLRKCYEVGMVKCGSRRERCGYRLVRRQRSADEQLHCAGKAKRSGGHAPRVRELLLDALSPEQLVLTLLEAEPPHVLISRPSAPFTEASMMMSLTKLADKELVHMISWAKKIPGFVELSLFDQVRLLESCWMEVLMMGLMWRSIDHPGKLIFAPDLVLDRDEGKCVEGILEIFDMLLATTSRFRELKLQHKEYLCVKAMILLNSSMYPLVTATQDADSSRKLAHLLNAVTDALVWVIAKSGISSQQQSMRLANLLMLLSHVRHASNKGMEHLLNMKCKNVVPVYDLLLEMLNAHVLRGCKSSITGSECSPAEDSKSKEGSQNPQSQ
Sequence of Paired box protein Pax-8 (Q06710 whole entry): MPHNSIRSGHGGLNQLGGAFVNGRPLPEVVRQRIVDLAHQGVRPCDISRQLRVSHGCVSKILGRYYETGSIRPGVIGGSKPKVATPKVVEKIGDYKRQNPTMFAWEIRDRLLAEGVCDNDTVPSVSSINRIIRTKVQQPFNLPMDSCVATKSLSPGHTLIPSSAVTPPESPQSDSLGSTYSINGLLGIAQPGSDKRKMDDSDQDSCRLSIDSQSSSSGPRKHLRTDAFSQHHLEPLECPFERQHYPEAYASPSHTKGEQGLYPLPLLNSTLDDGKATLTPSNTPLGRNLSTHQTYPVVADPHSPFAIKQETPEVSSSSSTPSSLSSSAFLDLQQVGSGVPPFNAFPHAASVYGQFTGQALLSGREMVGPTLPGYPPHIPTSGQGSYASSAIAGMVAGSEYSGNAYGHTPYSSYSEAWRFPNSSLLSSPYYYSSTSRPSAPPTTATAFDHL

**Q.** With `CC(=O)Nc1ccc(S(=O)(=O)[N-]c2nc3ccccc3nc2-[n+]2ccc(NC(=O)c3ccccc3)cc2)cc1` as the compound, how does the EC50 (Kallikrein-7) read?
**A.** > 69.5 µM (inactive)

**Q.** What does the source list for `C[C@H](CO)N1C[C@H](C)[C@@H](CN(C)C(=O)c2ccccc2F)Oc2ncc(C#Cc3cccc(F)c3)cc2C1=O`?
**A.** AC50 [1]: 3.17 µM (active); AC50 [2]: 39.9 µM (active); AC50 [3]: 1.97 µM (active); AC50 [4]: 1.63 µM (active); AC50 [5]: 2.1 µM (active)

**Q.** Which EC50 (Kallikrein-7) does the source give for `CCOC(=O)N1CCN(C(=O)c2ccc3nc4ccsc4c(=O)n3c2)CC1` here?
**A.** 10.6 µM (inactive)

**Q.** Which EC50 [6] does the source give for `O=[N+]([O-])c1c(NCCCO)cc(SCc2ccco2)c2nonc12` here?
**A.** 27.1 µM (active)

**Q.** What about the EC50 [7] of the same compound?
**A.** 18 µM (active)

**Q.** What about the AC50 [8] of the same compound?
**A.** 57.7 µM (active)

**Q.** And the EC50 (Protein RecA)?
**A.** 5.64 µM (active)

**Q.** And the IC50 [9]?
**A.** > 66 µM (inactive)

**Q.** And the IC50 [10]?
**A.** > 66 µM (inactive)

**Q.** What about the CC50 [11] of the same compound?
**A.** > 40 µM (active)

**Q.** With `CCC(C(=O)Nc1cc(C(=O)O)ccc1C)c1ccccc1` (stereo unspecified) as the compound, how does the CC50 [11] read?
**A.** > 40 µM (active)

**Q.** Which AC50 (Paired box protein Pax-8) does the source give for `Oc1nc2ccccc2n1C1CCN(C(c2cccs2)c2nnnn2-c2ccc3c(c2)OCCO3)CC1` (stereo unspecified) here?
**A.** 1.78 µM (active)

**Q.** What about the AC50 [12] of the same compound?
**A.** 54.2 µM (active)

**Q.** With `Sc1nnc(-c2cc(-c3ccco3)[nH]n2)n1-c1ccccc1Cl` as the compound, how does the IC50 (Estrogen receptor beta [13]) read?
**A.** > 50 µM (not active)

**Q.** And the IC50 (Estrogen receptor beta [14])?
**A.** > 109 µM (not active)

**Q.** And the IC50 [15]?
**A.** 5.55 µM (active)

**Q.** For `C[C@@H]1CN([C@@H](C)CO)C(=O)Cc2cc(NC(=O)Nc3ccc(C(F)(F)F)cc3)ccc2O[C@H]1CN(C)Cc1ccc(-c2ccccc2)cc1`, which AC50 [1] is on record?
**A.** 1.09 µM (active)

**Q.** And the AC50 [2]?
**A.** 19.3 µM (active)

**Q.** What about the AC50 [3] of the same compound?
**A.** 1.8 µM (active)

**Q.** And the AC50 [4]?
**A.** 1.11 µM (active)

**Q.** And the AC50 [16]?
**A.** 21.4 µM (active)

**Q.** And the AC50 [5]?
**A.** 1.83 µM (active)
